Values joined by “and” are separate entries in the source; they are usually repeats but may differ in a detail not shown here. Equal values may be shown once. Toxic doses and inconclusive results are not listed.
Tested on: CD2F1 mice, P388/ADR leukemia ip, median survival T/C
Assay: NCI In Vivo Anticancer Drug Screen. Data for tumor model P388 Leukemia resistant to Adriamycin; NSC 123127, Developed at Scr 08 (intraperitoneal) in CD2F1 (CDF1) mice
Settings: endpoint: median survival time, higher = longer survival
Protocol: The antitumor activity of compounds was measured in mice bearing transplantable tumors. Survival or tumor size were measured and the results are expressed as the measurement made in the treated group (T) divided by the measurement made in the vehicle treated control group (C). The tumor model used in this assay is P388 Leukemia resistant to Adriamycin; NSC 123127, Developed at Scr 08 (intraperitoneal) in CD2F1 (CDF1) mice

[1] = dose: 44.0 mg/kg/injection, schedule: Q01DX005 (ip), vehicle: saline
[2] = dose: 100.0 mg/kg/injection, schedule: Q01DX005 (ip), vehicle: saline

Question: Which T/C (dose: 7.0 mg/kg/injection, schedule: Q01DX009 (ip), vehicle: saline with Tween-80) does the source give for `CN(C)CCN1C(=O)c2cccc3cc(N)cc(c23)C1=O` here?
Answer: The T/C was 109 % of control and 117 % of control.

Question: What about the T/C (dose: 11.0 mg/kg/injection, schedule: Q01DX009 (ip), vehicle: saline with Tween-80) of the same molecule?
Answer: The T/C was 116 % of control.

Question: And the T/C (dose: 16.0 mg/kg/injection, schedule: Q01DX009 (ip), vehicle: saline with Tween-80)?
Answer: The T/C was 106 % of control and 113 % of control.

Question: And the T/C (dose: 24.0 mg/kg/injection, schedule: Q01DX009 (ip), vehicle: saline with Tween-80)?
Answer: Its T/C is 112 % of control and 116 % of control.

Question: What does the source list for `COc1cc(NS(C)(=O)=O)ccc1Nc1c2ccccc2nc2ccccc12`?
Answer: T/C (dose: 1.25 mg/kg/injection, schedule: Q04DX003 (ip), vehicle: other): 102 % of control; T/C (dose: 2.5 mg/kg/injection, schedule: Q04DX003 (ip), vehicle: other): 109 % of control; T/C (dose: 2.59 mg/kg/injection, schedule: Q04DX003 (ip), vehicle: other): 107 % of control; T/C (dose: 4.32 mg/kg/injection, schedule: Q04DX003 (ip), vehicle: other): 107 % of control; T/C (dose: 5.0 mg/kg/injection, schedule: Q04DX003 (ip), vehicle: other): 109 % of control; T/C (dose: 7.2 mg/kg/injection, schedule: Q04DX003 (ip), vehicle: other): 104 % of control; T/C (dose: 10.0 mg/kg/injection, schedule: Q04DX003 (ip), vehicle: other): 109 % of control; T/C (dose: 12.0 mg/kg/injection, schedule: Q04DX003 (ip), vehicle: other): 106 % of control; T/C (dose: 20.0 mg/kg/injection, schedule: Q04DX003 (ip), vehicle: other): 105 % of control and 113 % of control

Question: How did the T/C (dose: 30.0 mg/kg/injection, schedule: Q01DX005 (ip), vehicle: saline) turn out when `CC(=O)N(C)c1ccc(Nc2cc(C)[nH]c3ccc4ncnc4c23)cc1` was run?
Answer: Its T/C is 98 % of control.

Question: What about the T/C [1] of the same molecule?
Answer: The T/C was 114 % of control.

Question: What about the T/C [2] of the same molecule?
Answer: The T/C was 122 % of control.

Question: What does the source list for `O=[N+]([O-])c1ccc(N(CCO)CCO)c2c1no[n+]2[O-]`?
Answer: T/C (dose: 3.12 mg/kg/injection, schedule: Q01DX005 (ip), vehicle: saline with Tween-80): 114 % of control; T/C (dose: 6.25 mg/kg/injection, schedule: Q01DX005 (ip), vehicle: saline with Tween-80): 124 % of control

Question: With `CN(C)[C@@H]1C(=O)C(C(=O)NCN2CCN(C(=N)N=C(N)N)CC2)=C(O)[C@@]2(O)C(=O)C3=C(O)c4c(O)cccc4[C@@](C)(O)[C@H]3C[C@@H]12` as the molecule, how does the T/C (dose: 0.62 mg/kg/injection, schedule: Q01DX005 (ip), vehicle: saline) read?
Answer: Its T/C is 113 % of control.

Question: And the T/C (dose: 1.25 mg/kg/injection, schedule: Q01DX005 (ip), vehicle: saline)?
Answer: The T/C was 100 % of control.

Question: What about the T/C (dose: 1.8 mg/kg/injection, schedule: Q01DX005 (ip), vehicle: suspension in saline) of the same molecule?
Answer: Its T/C is 97 % of control.

Question: And the T/C (dose: 2.5 mg/kg/injection, schedule: Q01DX005 (ip), vehicle: saline)?
Answer: The T/C was 106 % of control.

Question: And the T/C (dose: 3.0 mg/kg/injection, schedule: Q01DX005 (ip), vehicle: suspension in saline)?
Answer: Its T/C is 115 % of control.

Question: And the T/C (dose: 5.0 mg/kg/injection, schedule: Q01DX005 (ip), vehicle: saline)?
Answer: Its T/C is 152 % of control.

Question: What about the T/C (dose: 5.0 mg/kg/injection, schedule: Q01DX005 (ip), vehicle: suspension in saline) of the same molecule?
Answer: The T/C was 107 % of control.

Question: With `CCN(CC)CCn1[nH]c2c3ccc(=O)cc3sc3c(NCCN)ccc1c32` as the molecule, how does the T/C (dose: 1.56 mg/kg/injection, schedule: Q01DX005 (ip), vehicle: water) read?
Answer: Its T/C is 99 % of control.

Question: What about the T/C (dose: 3.12 mg/kg/injection, schedule: Q01DX005 (ip), vehicle: water) of the same molecule?
Answer: Its T/C is 95 % of control.

Question: And the T/C (dose: 6.25 mg/kg/injection, schedule: Q01DX005 (ip), vehicle: water)?
Answer: Its T/C is 106 % of control.

Question: And the T/C (dose: 12.5 mg/kg/injection, schedule: Q01DX005 (ip), vehicle: water)?
Answer: Its T/C is 91 % of control.

Question: With `Nc1ncn(C2OC(CO)C(O)C2O)c(=O)n1` (stereo unspecified) as the molecule, how does the T/C (dose: 30.0 mg/kg/injection, schedule: Q01DX009 (ip), vehicle: saline) read?
Answer: Its T/C is 232 % of control and 246 % of control.

Question: And the T/C [1]?
Answer: The T/C was 183 % of control.

Question: And the T/C (dose: 44.0 mg/kg/injection, schedule: Q01DX009 (ip), vehicle: saline)?
Answer: Its T/C is 248 % of control and 261 % of control.

Question: What about the T/C (dose: 67.0 mg/kg/injection, schedule: Q01DX005 (ip), vehicle: saline) of the same molecule?
Answer: Its T/C is 189 % of control.

Question: And the T/C (dose: 67.0 mg/kg/injection, schedule: Q01DX009 (ip), vehicle: saline)?
Answer: Its T/C is 253 % of control and 280 % of control.

Question: What about the T/C [2] of the same molecule?
Answer: Its T/C is 210 % of control.

Question: What about the T/C (dose: 100.0 mg/kg/injection, schedule: Q01DX009 (ip), vehicle: saline) of the same molecule?
Answer: The T/C was 263 % of control and 270 % of control.

Question: What about the T/C (dose: 150.0 mg/kg/injection, schedule: Q01DX005 (ip), vehicle: saline) of the same molecule?
Answer: The T/C was 206 % of control.

Question: What about the T/C (dose: 150.0 mg/kg/injection, schedule: Q01DX009 (ip), vehicle: saline) of the same molecule?
Answer: The T/C was 277 % of control and 296 % of control.

Question: And the T/C (dose: 200.0 mg/kg/injection, schedule: Q01DX005 (ip), vehicle: saline)?
Answer: The T/C was 207 % of control.

Question: What does the source list for `O=C(Oc1ccccc1)c1cc(O)c(O)c(O)c1`?
Answer: T/C (dose: 25.0 mg/kg/injection, schedule: Q01DX005 (ip), vehicle: saline with Tween-80): 102 % of control; T/C (dose: 50.0 mg/kg/injection, schedule: Q01DX005 (ip), vehicle: saline with Tween-80): 98 % of control; T/C (dose: 100.0 mg/kg/injection, schedule: Q01DX005 (ip), vehicle: saline with Tween-80): 99 % of control; T/C (dose: 200.0 mg/kg/injection, schedule: Q01DX005 (ip), vehicle: saline with Tween-80): 112 % of control

Question: For `NC(N)=NS(=O)(=O)c1ccc(NCc2c3ccccc3nc3ccccc23)cc1`, which T/C (dose: 50.0 mg/kg/injection, schedule: Q04DX003 (ip), vehicle: Klucel (hydroxypropylcellulose) (HPC)) is on record?
Answer: The T/C was 101 % of control.

Question: What about the T/C (dose: 100.0 mg/kg/injection, schedule: Q04DX003 (ip), vehicle: Klucel (hydroxypropylcellulose) (HPC)) of the same molecule?
Answer: Its T/C is 97 % of control.

Question: What about the T/C (dose: 200.0 mg/kg/injection, schedule: Q04DX003 (ip), vehicle: Klucel (hydroxypropylcellulose) (HPC)) of the same molecule?
Answer: Its T/C is 100 % of control.

Question: And the T/C (dose: 400.0 mg/kg/injection, schedule: Q04DX003 (ip), vehicle: Klucel (hydroxypropylcellulose) (HPC))?
Answer: Its T/C is 87 % of control.

Question: Which T/C (dose: 3.75 mg/kg/injection, schedule: Q01DX005 (ip), vehicle: saline with Tween-80) does the source give for `CO[C@@]12[C@@H]3N[C@@H]3CN1C1=C(C(=O)C(N3CCCC3)=C(C)C1=O)[C@@H]2COC(N)=O` here?
Answer: Its T/C is 122 % of control.

Question: What about the T/C (dose: 10.4 mg/kg/injection, schedule: Q01DX005 (ip), vehicle: saline with Tween-80) of the same molecule?
Answer: The T/C was 122 % of control.

Question: What about the T/C (dose: 12.5 mg/kg/injection, schedule: Q01DX005 (ip), vehicle: saline with Tween-80) of the same molecule?
Answer: The T/C was 117 % of control and 120 % of control.

Question: And the T/C (dose: 17.4 mg/kg/injection, schedule: Q01DX005 (ip), vehicle: saline with Tween-80)?
Answer: The T/C was 113 % of control.
